Data as given in publication PMC12693633, “Synthesis and Evaluation of Radiogallium-Labeled Peptide Probes for In Vivo Imaging of Legumain Activity” (Molecules, 2025).
Where two headings read alike, the source gives them in different places. Square brackets hold non-standard residues; d marks the D form. Peptide text beside a SMILES is read from it. * marks the point of attachment. NOTA(2S-Bn(4-NHCS)) = O=C(O)CN1CCN(CC(=O)O)C[C@H](Cc2ccc(NC(=S)*)cc2)N(CC(=O)O)CC1; Cit = NC(=O)NCCC[C@H](N)C(=O)O; Ahx = NCCCCCC(=O)O

Assay: In vivo biodistribution in HCT116 tumor-bearing mice
Details: female, mouse, iv, total radioactivity, mean (SD), n = 5; for tissue to tissue ratio at 1 h: BALB/c nu/nu, 7.4 kBq, HCT116 tumor-bearing mice, 1 h after i.v. injection; for tissue uptake at 1 h / tissue uptake dose at 1 h: 7.4 kBq i.v. (tail vein), 1 h after injection, gamma counter; for tissue uptake dose at 1 h: stomach (whole organ), whole organ
Method: Animal experiments were conducted in accordance with our institutional guidelines and were approved by the Nagasaki University Animal Care Committee and the Kanazawa University Animal Care Committee. The animal experimental protocols were approved by the Committee on Animal Experimentation of Nagasaki University and Kanazawa University. BALB/c nu/nu mice (female; 4 weeks old) were supplied by Japan SLC (Shizuoka, Japan). The mice were maintained in a room at a constant ambient temperature and a 12/12 h light/dark cycle and were given free access to food and water. Mice were subcutaneously injected on their right shoulders with approximately 1.0 × 10^7 HCT116 cells. The tumors were allowed to reach 300–500 mm^3 (1–2 weeks after inoculation) before biodistribution studies were performed.
Each [^67Ga]Ga-NOTA-peptide (7.4 kBq) was administered to mice via tail vein injection in 100 μL of saline. The mice were euthanized 1 h after injection, and their organs were harvested. The tissues were weighed and the radioactivity in each sample was measured using an automated gamma counter (n = 5). The results are expressed as the percent injected dose per gram of tissue (%ID/g) or as %ID.

[1] = tumor/blood, read-out: Tumor/Blood ratio
[2] = tumor/muscle, read-out: Tumor/Muscle ratio
[3] = blood, HCT116 tumor-bearing BALB/c nu/nu mice, read-out: Biodistribution, Blood
[4] = brain, HCT116 tumor-bearing BALB/c nu/nu mice, read-out: Biodistribution, Brain
[5] = heart, HCT116 tumor-bearing BALB/c nu/nu mice, read-out: Biodistribution, Heart
[6] = intestine, HCT116 tumor-bearing BALB/c nu/nu mice, read-out: Biodistribution, Intestine
[7] = HCT116 tumor, BALB/c nu/nu mice, read-out: Biodistribution, Tumor
[8] = kidney, HCT116 tumor-bearing BALB/c nu/nu mice, read-out: Biodistribution, Kidney
[9] = liver, HCT116 tumor-bearing BALB/c nu/nu mice, read-out: Biodistribution, Liver
[10] = lung, HCT116 tumor-bearing BALB/c nu/nu mice, read-out: Biodistribution, Lung
[11] = muscle, HCT116 tumor-bearing BALB/c nu/nu mice, read-out: Biodistribution, Muscle
[12] = pancreas, HCT116 tumor-bearing BALB/c nu/nu mice, read-out: Biodistribution, Pancreas
[13] = spleen, HCT116 tumor-bearing BALB/c nu/nu mice, read-out: Biodistribution, Spleen
[14] = HCT116 tumor-bearing BALB/c nu/nu mice

Compound: CC(=O)NCCCCCC(=O)N[C@H](CCC(=O)O)C(=O)N[C@H](CCC(=O)O)C(=O)N[C@H](CCC(=O)O)C(=O)N[C@H](CCC(=O)O)C(=O)N[C@H](CCC(=O)O)C(=O)N[C@H](CCC(=O)O)C(=O)N[C@H](CCC(=O)O)C(=O)N[C@H](CCC(=O)O)C(=O)N[C@H](CCC(=O)O)C(=O)NCCCCCC(=O)N1CCC[C@H]1C(=O)N[C@@H](C)C(=O)N[C@@H](C)C(=O)N[C@@H](CC(N)=O)C(=O)N[C@H](C(=O)NCC(=O)N[C@H](CCCNC(=N)N)C(=O)N[C@H](CCCNC(=N)N)C(=O)N[C@H](CCCNC(=N)N)C(=O)N[C@H](CCCNC(=N)N)C(=O)N[C@H](CCCNC(=N)N)C(=O)N[C@H](CCCNC(=N)N)C(=O)N[C@H](CCCNC(=N)N)C(=O)N[C@H](CCCNC(=N)N)C(=O)N[C@H](CCCNC(=N)N)C(=O)NCCCCCC(=O)N[C@H](CCCCNC(=S)Nc1ccc(C[C@H]2CN(CC(=O)O)CCN(CC(=O)O)CCN2CC(=O)O)cc1)C(N)=O)C(C)C [[^67Ga]Ga-NOTA-LCP-1, metal not drawn] (Ac-[Ahx][dE][dE][dE][dE][dE][dE][dE][dE][dE][Ahx]PAANVG[dR][dR][dR][dR][dR][dR][dR][dR][dR][Ahx][dK](NOTA(2S-Bn(4-NHCS)))-NH2)
- tissue to tissue ratio at 1 h [1]: 8.29 ± 3.41
- tissue to tissue ratio at 1 h [2]: 3.54
- tissue uptake at 1 h [3]: 0.28 %ID/g
- tissue uptake at 1 h [4]: 0.03 %ID/g
- tissue uptake at 1 h [5]: 0.53 %ID/g
- tissue uptake at 1 h [6]: 0.44 %ID/g
- tissue uptake at 1 h [7]: 1.83 ± 0.32 %ID/g
- tissue uptake at 1 h [8]: 129 %ID/g
- tissue uptake at 1 h [9]: 19.1 %ID/g
- tissue uptake at 1 h [10]: 0.93 %ID/g
- tissue uptake at 1 h [11]: 0.54 %ID/g
- tissue uptake at 1 h [12]: 0.31 %ID/g
- tissue uptake at 1 h [13]: 3.94 %ID/g
- tissue uptake dose at 1 h [14]: 0.18 %ID

Compound: CC(=O)NCCCCCC(=O)N[C@H](CCC(=O)O)C(=O)N[C@H](CCC(=O)O)C(=O)N[C@H](CCC(=O)O)C(=O)N[C@H](CCC(=O)O)C(=O)NCCCCCC(=O)N1CCC[C@H]1C(=O)N[C@@H](C)C(=O)N[C@@H](C)C(=O)N[C@@H](CC(N)=O)C(=O)N[C@H](C(=O)NCC(=O)N[C@H](CCCNC(=N)N)C(=O)N[C@H](CCCNC(=N)N)C(=O)N[C@H](CCCNC(=N)N)C(=O)N[C@H](CCCNC(=N)N)C(=O)N[C@H](CCCNC(=N)N)C(=O)NCCCCCC(=O)N[C@H](CCCCNC(=S)Nc1ccc(C[C@H]2CN(CC(=O)O)CCN(CC(=O)O)CCN2CC(=O)O)cc1)C(N)=O)C(C)C [[^67Ga]Ga-NOTA-LCP-3, metal not drawn] (Ac-[Ahx][dE][dE][dE][dE][Ahx]PAANVG[dR][dR][dR][dR][dR][Ahx][dK](NOTA(2S-Bn(4-NHCS)))-NH2)
- tissue to tissue ratio at 1 h [1]: 2.2 ± 0.69
- tissue to tissue ratio at 1 h [2]: 2.47
- tissue uptake at 1 h [3]: 0.46 %ID/g
- tissue uptake at 1 h [4]: 0.04 %ID/g
- tissue uptake at 1 h [5]: 0.44 %ID/g
- tissue uptake at 1 h [6]: 0.63 %ID/g
- tissue uptake at 1 h [7]: 0.97 ± 0.25 %ID/g
- tissue uptake at 1 h [8]: 96.6 %ID/g
- tissue uptake at 1 h [9]: 17.2 %ID/g
- tissue uptake at 1 h [10]: 1.58 %ID/g
- tissue uptake at 1 h [11]: 0.4 %ID/g
- tissue uptake at 1 h [12]: 0.38 %ID/g
- tissue uptake at 1 h [13]: 4.37 %ID/g
- tissue uptake dose at 1 h [14]: 0.19 %ID

Compound: CC(=O)NCCCCCC(=O)N[C@H](CCC(=O)O)C(=O)N[C@H](CCC(=O)O)C(=O)N[C@H](CCC(=O)O)C(=O)N[C@H](CCC(=O)O)C(=O)N[C@H](CCC(=O)O)C(=O)N[C@H](CCC(=O)O)C(=O)N[C@H](CCC(=O)O)C(=O)N[C@H](CCC(=O)O)C(=O)N[C@H](CCC(=O)O)C(=O)NCCCCCC(=O)N1CCC[C@H]1C(=O)N[C@@H](C)C(=O)N[C@@H](C)C(=O)N[C@@H](CCCNC(N)=O)C(=O)N[C@H](C(=O)NCC(=O)N[C@H](CCCNC(=N)N)C(=O)N[C@H](CCCNC(=N)N)C(=O)N[C@H](CCCNC(=N)N)C(=O)N[C@H](CCCNC(=N)N)C(=O)N[C@H](CCCNC(=N)N)C(=O)N[C@H](CCCNC(=N)N)C(=O)N[C@H](CCCNC(=N)N)C(=O)N[C@H](CCCNC(=N)N)C(=O)N[C@H](CCCNC(=N)N)C(=O)NCCCCCC(=O)N[C@H](CCCCNC(=S)Nc1ccc(C[C@H]2CN(CC(=O)O)CCN(CC(=O)O)CCN2CC(=O)O)cc1)C(N)=O)C(C)C [[^67Ga]Ga-NOTA-NCP-1, metal not drawn] (Ac-[Ahx][dE][dE][dE][dE][dE][dE][dE][dE][dE][Ahx]PAA[Cit]VG[dR][dR][dR][dR][dR][dR][dR][dR][dR][Ahx][dK](NOTA(2S-Bn(4-NHCS)))-NH2)
- tissue to tissue ratio at 1 h [1]: 4.39 ± 2.07
- tissue to tissue ratio at 1 h [2]: 1.91
- tissue uptake at 1 h [3]: 0.45 %ID/g
- tissue uptake at 1 h [4]: 0.04 %ID/g
- tissue uptake at 1 h [5]: 0.43 %ID/g
- tissue uptake at 1 h [6]: 0.53 %ID/g
- tissue uptake at 1 h [7]: 1.8 ± 0.51 %ID/g
- tissue uptake at 1 h [8]: 122 %ID/g
- tissue uptake at 1 h [9]: 17.4 %ID/g
- tissue uptake at 1 h [10]: 1.08 %ID/g
- tissue uptake at 1 h [11]: 0.96 %ID/g
- tissue uptake at 1 h [12]: 0.64 %ID/g
- tissue uptake at 1 h [13]: 3.15 %ID/g
- tissue uptake dose at 1 h [14]: 0.22 %ID

Compound: CC(=O)NCCCCCC(=O)N[C@H](CCC(=O)O)C(=O)N[C@H](CCC(=O)O)C(=O)N[C@H](CCC(=O)O)C(=O)N[C@H](CCC(=O)O)C(=O)NCCCCCC(=O)N1CCC[C@H]1C(=O)N[C@@H](C)C(=O)N[C@@H](C)C(=O)N[C@@H](CCCNC(N)=O)C(=O)N[C@H](C(=O)NCC(=O)N[C@H](CCCNC(=N)N)C(=O)N[C@H](CCCNC(=N)N)C(=O)N[C@H](CCCNC(=N)N)C(=O)N[C@H](CCCNC(=N)N)C(=O)N[C@H](CCCNC(=N)N)C(=O)NCCCCCC(=O)N[C@H](CCCCNC(=S)Nc1ccc(C[C@H]2CN(CC(=O)O)CCN(CC(=O)O)CCN2CC(=O)O)cc1)C(N)=O)C(C)C [[^67Ga]Ga-NOTA-NCP-3, metal not drawn] (Ac-[Ahx][dE][dE][dE][dE][Ahx]PAA[Cit]VG[dR][dR][dR][dR][dR][Ahx][dK](NOTA(2S-Bn(4-NHCS)))-NH2)
- tissue to tissue ratio at 1 h [1]: 2.54
- tissue to tissue ratio at 1 h [2]: 2.7
- tissue uptake at 1 h [3]: 0.41 %ID/g
- tissue uptake at 1 h [4]: 0.04 %ID/g
- tissue uptake at 1 h [5]: 0.56 %ID/g
- tissue uptake at 1 h [6]: 0.54 %ID/g
- tissue uptake at 1 h [7]: 0.95 %ID/g
- tissue uptake at 1 h [8]: 73.3 %ID/g
- tissue uptake at 1 h [9]: 20.8 %ID/g
- tissue uptake at 1 h [10]: 1.36 %ID/g
- tissue uptake at 1 h [11]: 0.43 %ID/g
- tissue uptake at 1 h [12]: 0.46 %ID/g
- tissue uptake at 1 h [13]: 5.38 %ID/g
- tissue uptake dose at 1 h [14]: 0.12 %ID
